Tests used:
[1] = refractive index (Na D-line) (dimensionless); details: 101.33 kPa, Liquid, Standard Abbe refractometry
[2] = refractive index (Na D-line) (dimensionless); φn = volume fraction of the nth substance listed; details: 101 kPa, Liquid, Standard Abbe refractometry

CCCC[n+]1cccc(C)c1.F[B-](F)(F)F [1-butyl-3-methylpyridinium tetrafluoroborate]
[1]
Details | refractive index
293.15 K | 1.45248
303.15 K | 1.44976
313.15 K | 1.44706
323.15 K | 1.44425

CCCC[n+]1cccc(C)c1.F[B-](F)(F)F [1-butyl-3-methylpyridinium tetrafluoroborate] + CCO
[2]
Details | refractive index
293.15 K, φ1 = 0.0895 | 1.3713
293.15 K, φ1 = 0.1467 | 1.3773
293.15 K, φ1 = 0.2062 | 1.38325
293.15 K, φ1 = 0.2725 | 1.38979
293.15 K, φ1 = 0.4637 | 1.4075
293.15 K, φ1 = 0.5588 | 1.41595
293.15 K, φ1 = 0.6583 | 1.4245
293.15 K, φ1 = 0.6935 | 1.42757
293.15 K, φ1 = 0.8285 | 1.43878
293.15 K, φ1 = 0.883 | 1.44311
293.15 K, φ1 = 0.928 | 1.4467
293.15 K, φ1 = 0.9641 | 1.44963
293.15 K, φ1 = 1 | 1.45248
303.15 K, φ1 = 0.0891 | 1.3672
303.15 K, φ1 = 0.1461 | 1.37333
303.15 K, φ1 = 0.2054 | 1.3794
303.15 K, φ1 = 0.2716 | 1.38602
303.15 K, φ1 = 0.4626 | 1.404
303.15 K, φ1 = 0.5577 | 1.41257
303.15 K, φ1 = 0.6572 | 1.42134
303.15 K, φ1 = 0.6925 | 1.42444
303.15 K, φ1 = 0.8278 | 1.43584
303.15 K, φ1 = 0.8825 | 1.44031
303.15 K, φ1 = 0.9277 | 1.4439
303.15 K, φ1 = 0.964 | 1.4469
303.15 K, φ1 = 1 | 1.44976
313.15 K, φ1 = 0.0887 | 1.36314
313.15 K, φ1 = 0.1477 | 1.36964
313.15 K, φ1 = 0.2047 | 1.37558
313.15 K, φ1 = 0.2706 | 1.3823
313.15 K, φ1 = 0.4614 | 1.40055
313.15 K, φ1 = 0.5565 | 1.40924
313.15 K, φ1 = 0.6561 | 1.4182
313.15 K, φ1 = 0.6914 | 1.42134
313.15 K, φ1 = 0.8271 | 1.43292
313.15 K, φ1 = 0.882 | 1.43752
313.15 K, φ1 = 0.9273 | 1.44114
313.15 K, φ1 = 0.9638 | 1.44418
313.15 K, φ1 = 1 | 1.44706
323.15 K, φ1 = 0.0883 | 1.35913
323.15 K, φ1 = 0.147 | 1.36572
323.15 K, φ1 = 0.2037 | 1.37173
323.15 K, φ1 = 0.2695 | 1.37856
323.15 K, φ1 = 0.4599 | 1.39714
323.15 K, φ1 = 0.555 | 1.40599
323.15 K, φ1 = 0.6548 | 1.41504
323.15 K, φ1 = 0.6902 | 1.41823
323.15 K, φ1 = 0.8263 | 1.42988
323.15 K, φ1 = 0.8814 | 1.43448
323.15 K, φ1 = 0.9269 | 1.43827
323.15 K, φ1 = 0.9636 | 1.44135
323.15 K, φ1 = 1 | 1.44425

CCCC[n+]1cccc(C)c1.F[B-](F)(F)F [1-butyl-3-methylpyridinium tetrafluoroborate] + CO
[2]
Details | refractive index
293.15 K, φ1 = 0.0958 | 1.34245
293.15 K, φ1 = 0.2025 | 1.35728
293.15 K, φ1 = 0.2756 | 1.36702
293.15 K, φ1 = 0.3528 | 1.37693
293.15 K, φ1 = 0.4508 | 1.38917
293.15 K, φ1 = 0.5501 | 1.40126
293.15 K, φ1 = 0.6751 | 1.416
293.15 K, φ1 = 0.7686 | 1.42667
293.15 K, φ1 = 0.828 | 1.43333
293.15 K, φ1 = 0.8763 | 1.43873
293.15 K, φ1 = 0.9159 | 1.44307
293.15 K, φ1 = 0.9334 | 1.445
293.15 K, φ1 = 0.9732 | 1.44949
293.15 K, φ1 = 1 | 1.45248
303.15 K, φ1 = 0.0958 | 1.33885
303.15 K, φ1 = 0.2025 | 1.35407
303.15 K, φ1 = 0.2756 | 1.364
303.15 K, φ1 = 0.3528 | 1.37406
303.15 K, φ1 = 0.4508 | 1.38641
303.15 K, φ1 = 0.5501 | 1.39855
303.15 K, φ1 = 0.6751 | 1.41337
303.15 K, φ1 = 0.7686 | 1.42402
303.15 K, φ1 = 0.828 | 1.43069
303.15 K, φ1 = 0.8763 | 1.43606
303.15 K, φ1 = 0.9159 | 1.44042
303.15 K, φ1 = 0.9334 | 1.44233
303.15 K, φ1 = 0.9732 | 1.4468
303.15 K, φ1 = 1 | 1.44976
313.15 K, φ1 = 0.0948 | 1.33503
313.15 K, φ1 = 0.2006 | 1.3505
313.15 K, φ1 = 0.2756 | 1.36083
313.15 K, φ1 = 0.3501 | 1.37069
313.15 K, φ1 = 0.4478 | 1.38319
313.15 K, φ1 = 0.5471 | 1.39542
313.15 K, φ1 = 0.6725 | 1.41032
313.15 K, φ1 = 0.7665 | 1.4211
313.15 K, φ1 = 0.8262 | 1.42784
313.15 K, φ1 = 0.875 | 1.4333
313.15 K, φ1 = 0.915 | 1.43765
313.15 K, φ1 = 0.9327 | 1.43961
313.15 K, φ1 = 0.9729 | 1.44409
313.15 K, φ1 = 1 | 1.44706
323.15 K, φ1 = 0.0942 | 1.332
323.15 K, φ1 = 0.1995 | 1.34774
323.15 K, φ1 = 0.2718 | 1.35784
323.15 K, φ1 = 0.3485 | 1.3681
323.15 K, φ1 = 0.4461 | 1.38056
323.15 K, φ1 = 0.5454 | 1.39283
323.15 K, φ1 = 0.6709 | 1.40773
323.15 K, φ1 = 0.7652 | 1.41853
323.15 K, φ1 = 0.8253 | 1.42521
323.15 K, φ1 = 0.8742 | 1.43058
323.15 K, φ1 = 0.9144 | 1.43492
323.15 K, φ1 = 0.9322 | 1.43687
323.15 K, φ1 = 0.9727 | 1.44133
323.15 K, φ1 = 1 | 1.44425

CCCC[n+]1ccc(C)cc1.F[B-](F)(F)F [1-butyl-4-methylpyridinium tetrafluoroborate]
[1]
Details | refractive index
293.15 K | 1.45386
303.15 K | 1.45114
313.15 K | 1.44841
323.15 K | 1.44571

CCCC[n+]1ccccc1.F[B-](F)(F)F [1-butylpyridinium tetrafluoroborate]
[1]
Details | refractive index
293.15 K | 1.44719
303.15 K | 1.44454
313.15 K | 1.4419
323.15 K | 1.43924
